In patent US7547690B2, “Compounds for the treatment of Hepatitis C” (Bristol-Myers Squibb Company, priority 2007, dated 2009):

Legend:
HCV replicon cells = assay: HCV replicon FRET / luciferase assay; format: cell-based; details: Hepatitis C virus, 50% reduction in FRET or luciferase activity in HCV replicon cells; read-out: EC50
Outline: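 HCV replicon cells (with or without Renilla luciferase reporter) incubated with titrated compounds at 37° C; cytotoxicity read by Alamar blue. Replicon activity then read by NS3 cleavage of EDANS/DABCYL FRET peptide (20 μM final, 340/490 nm kinetic) or by luciferase; background from highest control-inhibitor wells subtracted; EC50 = concentration giving 50% signal reduction.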

HCV NS5B = target: T1, HCV NS5B (Hepatitis C virus genotype 1b, UniProt Q9WMX2); assay: HCV NS5B RdRp enzyme assay (standard / modified); format: biochemical; details: HCV RdRp genotype 1b; standard or modified assay not specified; read-out: IC50
T1 construct: The protein was expressed with an 18 amino acid C-terminal truncation to enhance the solubility; made in house; host or cells: E. coli BL21(DE3)
Outline: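 Genotype 1b NS5B, 18-aa C-terminal truncation, E. coli-expressed; polyA template with biotin-oligo-dT12 primer, 3H-UTP (0.29 μM UTP), pH 7.5 Hepes, 2% DMSO, 30 °C, SPA read. Standard: 28 nM enzyme, 6 nM template, 180 nM primer, 60 min. Modified: 1.75 nM enzyme, 0.36 nM template, 20 nM bead-precaptured primer, 4 h; IC50 from seven concentrations, four-parameter fit.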

T1 sequence (Q9WMX2 2420-2992): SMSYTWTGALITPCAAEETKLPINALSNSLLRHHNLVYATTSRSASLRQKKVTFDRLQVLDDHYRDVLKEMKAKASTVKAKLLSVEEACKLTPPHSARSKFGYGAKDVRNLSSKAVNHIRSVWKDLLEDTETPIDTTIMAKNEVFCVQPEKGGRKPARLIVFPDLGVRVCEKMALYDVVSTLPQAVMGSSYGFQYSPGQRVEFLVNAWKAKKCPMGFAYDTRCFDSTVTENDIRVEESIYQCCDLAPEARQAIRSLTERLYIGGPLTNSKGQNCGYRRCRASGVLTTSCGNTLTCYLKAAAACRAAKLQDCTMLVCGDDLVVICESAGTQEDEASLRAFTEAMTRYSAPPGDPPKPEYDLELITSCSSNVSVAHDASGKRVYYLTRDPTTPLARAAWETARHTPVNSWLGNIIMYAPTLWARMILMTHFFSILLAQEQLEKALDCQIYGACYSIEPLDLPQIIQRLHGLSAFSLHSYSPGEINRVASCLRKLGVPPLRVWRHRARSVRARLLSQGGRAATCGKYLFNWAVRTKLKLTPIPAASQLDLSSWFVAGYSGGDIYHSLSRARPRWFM

| SMILES | EC50 (HCV replicon cells) | IC50 (HCV NS5B) |
| --- | --- | --- |
| COc1ccc2c(c1)C1CC1(C(=O)N1C[C@H]3C[C@@H]1CN3C(=O)OC(C)(C)C)Cn1c-2c(C2CCCCC2)c2ccc(C(=O)NS(=O)(=O)N3CCC3)cc21 (stereo partly drawn) | 2.4 to 500 nM | 2.4 to 500 nM |
| COc1ccc2c(c1)[C@@H]1C[C@]1(C(=O)N1C3CC1CN(C)C3)Cn1c-2c(C2CCCCC2)c2ccc(C(=O)NS(=O)(=O)C(C)C)cc21 | 2.4 to 500 nM | 2.4 to 500 nM |
| COc1ccc2c(c1)C1CC1(C(=O)N1C[C@H]3C[C@@H]1CN3CC(C)C)Cn1c-2c(C2CCCCC2)c2ccc(C(=O)NS(=O)(=O)C3CC3)cc21 (stereo partly drawn) | 2.4 to 500 nM | 2.4 to 500 nM |
| CCCS(=O)(=O)NC(=O)c1ccc2c(C3CCCCC3)c3n(c2c1)CC1(C(=O)N2C4CC2CN(C)C4)CC1c1cc(OC)ccc1-3 (stereo not drawn) | 2.4 to 500 nM | 2.4 to 500 nM |
| COc1ccc2c(c1)C1CC1(C(=O)N1C3CC1CN(C)C3)Cn1c-2c(C2CCCCC2)c2ccc(C(=O)NS(=O)(=O)CC(F)F)cc21 (stereo not drawn) | 2.4 to 500 nM | 2.4 to 500 nM |
| COc1ccc2c(c1)C1CC1(C(=O)N1[C@@H]3CNC[C@H]1C3)Cn1c-2c(C2CCCCC2)c2ccc(C(=O)NS(=O)(=O)N(C)C)cc21 (stereo partly drawn) | 2.4 to 500 nM | 2.4 to 500 nM |
| COc1ccc2c(c1)C1CC1(C(=O)N1CCN3CCC1CC3)Cn1c-2c(C2CCCCC2)c2ccc(C(=O)NS(C)(=O)=O)cc21 (stereo not drawn) | 2.4 to 500 nM | 2.4 to 500 nM |
| COc1ccc2c(c1)C1CC1(C(=O)N1C3CC1CN(C)C3)Cn1c-2c(C2CCCCC2)c2ccc(C(=O)NS(=O)(=O)CC3CC3)cc21 (stereo not drawn) | 2.4 to 500 nM | 2.4 to 500 nM |
| COc1ccc2c(c1)C1CC1(C(=O)N1C[C@]3(C)CN(C)C[C@](C)(C1)C3O)Cn1c-2c(C2CCCCC2)c2ccc(C(=O)NS(=O)(=O)N(C)C)cc21 (stereo partly drawn) | 2.4 to 500 nM | 2.4 to 500 nM |
